The values that follow come from ChEMBL document CHEMBL4418494, “Small molecule inhibitors of AGBL2” (2015).

The target in the assay is T1, Cytosolic carboxypeptidase 2 (Homo sapiens) (UniProt Q5U5Z8).
T1 sequence (whole entry): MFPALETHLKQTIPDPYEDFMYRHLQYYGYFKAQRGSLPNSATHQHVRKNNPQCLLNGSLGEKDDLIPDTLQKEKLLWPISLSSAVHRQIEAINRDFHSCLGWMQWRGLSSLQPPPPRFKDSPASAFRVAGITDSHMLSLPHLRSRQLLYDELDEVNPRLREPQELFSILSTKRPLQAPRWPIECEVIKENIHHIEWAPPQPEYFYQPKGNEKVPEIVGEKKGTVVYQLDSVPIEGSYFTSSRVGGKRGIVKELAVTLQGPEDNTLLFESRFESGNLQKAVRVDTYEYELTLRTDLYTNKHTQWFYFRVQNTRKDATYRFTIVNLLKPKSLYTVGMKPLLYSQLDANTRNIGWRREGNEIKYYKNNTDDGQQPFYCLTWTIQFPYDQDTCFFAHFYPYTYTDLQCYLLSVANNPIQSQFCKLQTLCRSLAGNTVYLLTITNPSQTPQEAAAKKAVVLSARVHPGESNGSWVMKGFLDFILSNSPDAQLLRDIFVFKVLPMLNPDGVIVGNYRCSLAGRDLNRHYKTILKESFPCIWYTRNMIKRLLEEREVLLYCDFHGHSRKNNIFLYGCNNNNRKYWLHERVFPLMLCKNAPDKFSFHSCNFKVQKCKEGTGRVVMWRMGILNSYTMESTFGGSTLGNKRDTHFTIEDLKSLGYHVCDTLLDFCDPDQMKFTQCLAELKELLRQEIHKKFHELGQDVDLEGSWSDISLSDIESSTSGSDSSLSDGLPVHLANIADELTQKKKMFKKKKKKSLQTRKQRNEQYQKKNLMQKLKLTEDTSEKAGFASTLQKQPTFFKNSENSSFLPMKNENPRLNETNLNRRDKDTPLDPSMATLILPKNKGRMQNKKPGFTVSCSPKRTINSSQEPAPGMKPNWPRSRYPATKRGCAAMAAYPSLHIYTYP
Nature of the assay: Inhibition of AGBL2 (unknown origin) expressed in HEK293 stably expressing TIG1 assessed as reduction in de-tyrosinated to tyrosinated ratio of alpha-tubulin at 1 uM incubated for 2 hrs by Western blotting analysis relative to control. Type of assay: cell-based.

Active and inactive are the calls of the source. No cut-off for these calls is given here.

Take `O=C(O)Cc1cccc(C(=O)Nc2ccc3c(c2)OCO3)c1`: the “inhibition (active/inactive call)” value is “Active”.

For the molecule `Cc1cc(C(F)(F)F)cnc1CC(=O)O`, the “inhibition (active/inactive call)” value is “Active”.

As for `Cc1cc(F)cnc1CC(=O)O`, the “inhibition (active/inactive call)” value is “Active”.

`CC(C)c1ccc(Sc2ccc(F)cc2CC(=O)O)cc1`: the “inhibition (active/inactive call)” value is “Active”.
